Measured values published in the supplement of paper PMC10307832.

Tests used:
Experiment in all cases: relative viability (nuclei count vs DMSO), 5 days (fraction); higher = more cells survive
201T = test system: 201T
Outline: (§1)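 Dosing by pin tool came one day after lung cancer cell lines were seeded in 1536-well plates, using either one drug or a fixed anchor-drug dose plus five library-drug doses (not always all listed) in √10 steps. After 5 days, nuclei were counted on 4× images. Relative viability is treated-well nuclei count divided by vehicle-well nuclei count, and values are medians of duplicate plates.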

BEN = test system: BEN
Outline: as §1

CAL-12T = test system: CAL-12T
Outline: as §1

HCC-44 = test system: HCC-44
Outline: as §1

HCC-827 = test system: HCC-827
Outline: as §1

HOP-62 = test system: HOP-62
Outline: as §1

LCLC-103H = test system: LCLC-103H
Outline: as §1

LCLC-97TM1 = test system: LCLC-97TM1
Outline: as §1

LXF-289 = test system: LXF-289
Outline: as §1

NCI-H1355 = test system: NCI-H1355
Outline: as §1

NCI-H1395 = test system: NCI-H1395
Outline: as §1

NCI-H1437 = test system: NCI-H1437
Outline: as §1

NCI-H1650 = test system: NCI-H1650
Outline: as §1

NCI-H1793 = test system: NCI-H1793
Outline: as §1

NCI-H2023 = test system: NCI-H2023
Outline: as §1

NCI-H2087 = test system: NCI-H2087
Outline: as §1

NCI-H2228 = test system: NCI-H2228
Outline: as §1

NCI-H2405 = test system: NCI-H2405
Outline: as §1

NCI-H3122 = test system: NCI-H3122
Outline: as §1

NCI-H322M = test system: NCI-H322M
Outline: as §1

NCI-H647 = test system: NCI-H647
Outline: as §1

NCI-H727 = test system: NCI-H727
Outline: as §1

RERF-LC-KJ = test system: RERF-LC-KJ
Outline: as §1

SK-LU-1 = test system: SK-LU-1
Outline: as §1

What does the source list for `COc1cc(N2CCC(C(N)=O)CC2)ccc1Nc1nc(N)c(Cl)c(Nc2ccccc2S(=O)(=O)C(C)C)n1` [HG-5-88-01] + COc1cccc2cc(-c3nc([C@H]4CC[C@H](C(=O)O)CC4)n4ncnc(N)c34)[nH]c12 [OSI-027] (partner 0.5 µM)?
relative viability (201T; first compound 0.04 µM): 0.84; relative viability (201T; first compound 0.1265 µM): 0.745; relative viability (201T; first compound 0.4 µM): 0.428; relative viability (201T; first compound 1.265 µM): 0.668; relative viability (201T; first compound 4 µM): 0.303; relative viability (BEN; first compound 0.04 µM): 0.305; relative viability (BEN; first compound 0.1265 µM): 0.312; relative viability (BEN; first compound 0.4 µM): 0.262; relative viability (BEN; first compound 1.265 µM): 0.3; relative viability (BEN; first compound 4 µM): 0.262; relative viability (CAL-12T; first compound 0.04 µM): 0.491; relative viability (CAL-12T; first compound 0.1265 µM): 0.672; relative viability (CAL-12T; first compound 0.4 µM): 0.612; relative viability (CAL-12T; first compound 1.265 µM): 0.208; relative viability (CAL-12T; first compound 4 µM): 0.173; relative viability (HCC-44; first compound 0.04 µM): 0.491; relative viability (HCC-44; first compound 0.1265 µM): 0.507; relative viability (HCC-44; first compound 0.4 µM): 0.353; relative viability (HCC-44; first compound 1.265 µM): 0.392; relative viability (HCC-44; first compound 4 µM): 0.121; relative viability (HCC-827; first compound 0.04 µM): 0.819; relative viability (HCC-827; first compound 0.1265 µM): 0.89; relative viability (HCC-827; first compound 0.4 µM): 0.8; relative viability (HCC-827; first compound 1.265 µM): 0.564; relative viability (HCC-827; first compound 4 µM): 0.406; relative viability (HOP-62; first compound 0.04 µM): 0.726; relative viability (HOP-62; first compound 0.1265 µM): 0.949; relative viability (HOP-62; first compound 0.4 µM): 0.828; relative viability (HOP-62; first compound 1.265 µM): 0.856; relative viability (HOP-62; first compound 4 µM): 0.737; relative viability (LCLC-103H; first compound 0.04 µM): 0.416; relative viability (LCLC-103H; first compound 0.1265 µM): 0.435; relative viability (LCLC-103H; first compound 0.4 µM): 0.381; relative viability (LCLC-103H; first compound 1.265 µM): 0.362; relative viability (LCLC-103H; first compound 4 µM): 0.405; relative viability (LCLC-97TM1; first compound 0.04 µM): 0.445; relative viability (LCLC-97TM1; first compound 0.1265 µM): 0.521; relative viability (LCLC-97TM1; first compound 0.4 µM): 0.238; relative viability (LCLC-97TM1; first compound 1.265 µM): 0.305; relative viability (LCLC-97TM1; first compound 4 µM): 0.131; relative viability (LXF-289; first compound 0.04 µM): 0.755; relative viability (LXF-289; first compound 0.1265 µM): 0.815; relative viability (LXF-289; first compound 0.4 µM): 0.77; relative viability (LXF-289; first compound 1.265 µM): 0.635; relative viability (LXF-289; first compound 4 µM): 0.337; relative viability (NCI-H1355; first compound 0.04 µM): 0.341; relative viability (NCI-H1355; first compound 0.1265 µM): 0.419; relative viability (NCI-H1355; first compound 0.4 µM): 0.3; relative viability (NCI-H1355; first compound 1.265 µM): 0.253; relative viability (NCI-H1355; first compound 4 µM): 0.237; relative viability (NCI-H1395; first compound 0.04 µM): 0.583; relative viability (NCI-H1395; first compound 0.1265 µM): 0.66; relative viability (NCI-H1395; first compound 0.4 µM): 0.638; relative viability (NCI-H1395; first compound 1.265 µM): 0.646; relative viability (NCI-H1395; first compound 4 µM): 0.631; relative viability (NCI-H1437; first compound 0.04 µM): 0.836; relative viability (NCI-H1437; first compound 0.1265 µM): 0.92; relative viability (NCI-H1437; first compound 0.4 µM): 0.887; relative viability (NCI-H1437; first compound 1.265 µM): 0.735; relative viability (NCI-H1437; first compound 4 µM): 0.83; relative viability (NCI-H1650; first compound 0.04 µM): 0.603; relative viability (NCI-H1650; first compound 0.1265 µM): 0.657; relative viability (NCI-H1650; first compound 0.4 µM): 0.399; relative viability (NCI-H1650; first compound 1.265 µM): 0.32; relative viability (NCI-H1650; first compound 4 µM): 0.265; relative viability (NCI-H1793; first compound 0.1265 µM): 0.269; relative viability (NCI-H1793; first compound 0.4 µM): 0.236; relative viability (NCI-H1793; first compound 4 µM): 0.177; relative viability (NCI-H2023; first compound 0.04 µM): 0.433; relative viability (NCI-H2023; first compound 0.1265 µM): 0.407; relative viability (NCI-H2023; first compound 0.4 µM): 0.205; relative viability (NCI-H2023; first compound 1.265 µM): 0.109; relative viability (NCI-H2023; first compound 4 µM): 0.127; relative viability (NCI-H2087; first compound 0.04 µM): 0.521; relative viability (NCI-H2087; first compound 0.1265 µM): 0.542; relative viability (NCI-H2087; first compound 0.4 µM): 0.505; relative viability (NCI-H2087; first compound 1.265 µM): 0.349; relative viability (NCI-H2087; first compound 4 µM): 0.215; relative viability (NCI-H2228; first compound 0.04 µM): 0.241; relative viability (NCI-H2228; first compound 0.1265 µM): 0.148; relative viability (NCI-H2228; first compound 0.4 µM): 0.181; relative viability (NCI-H2228; first compound 1.265 µM): 0.169; relative viability (NCI-H2228; first compound 4 µM): 0.172; relative viability (NCI-H2405; first compound 0.04 µM): 0.579; relative viability (NCI-H2405; first compound 0.1265 µM): 0.559; relative viability (NCI-H2405; first compound 0.4 µM): 0.539; relative viability (NCI-H2405; first compound 1.265 µM): 0.343; relative viability (NCI-H2405; first compound 4 µM): 0.382; relative viability (NCI-H3122; first compound 0.04 µM): 0.226; relative viability (NCI-H3122; first compound 0.1265 µM): 0.213; relative viability (NCI-H3122; first compound 0.4 µM): 0.114; relative viability (NCI-H3122; first compound 1.265 µM): 0.149; relative viability (NCI-H3122; first compound 4 µM): 0.129; relative viability (NCI-H322M; first compound 0.04 µM): 0.501; relative viability (NCI-H322M; first compound 0.1265 µM): 0.481; relative viability (NCI-H322M; first compound 0.4 µM): 0.448; relative viability (NCI-H322M; first compound 4 µM): 0.293; relative viability (NCI-H647; first compound 0.04 µM): 0.622; relative viability (NCI-H647; first compound 0.1265 µM): 0.63; relative viability (NCI-H647; first compound 0.4 µM): 0.613; relative viability (NCI-H647; first compound 1.265 µM): 0.566; relative viability (NCI-H647; first compound 4 µM): 0.648; relative viability (NCI-H727; first compound 0.04 µM): 0.423; relative viability (NCI-H727; first compound 0.1265 µM): 0.619; relative viability (NCI-H727; first compound 0.4 µM): 0.493; relative viability (NCI-H727; first compound 1.265 µM): 0.424; relative viability (NCI-H727; first compound 4 µM): 0.355; relative viability (RERF-LC-KJ; first compound 0.04 µM): 0.637; relative viability (RERF-LC-KJ; first compound 0.1265 µM): 0.54; relative viability (RERF-LC-KJ; first compound 0.4 µM): 0.506; relative viability (RERF-LC-KJ; first compound 1.265 µM): 0.345; relative viability (RERF-LC-KJ; first compound 4 µM): 0.308; relative viability (SK-LU-1; first compound 0.04 µM): 0.292; relative viability (SK-LU-1; first compound 0.1265 µM): 0.34; relative viability (SK-LU-1; first compound 0.4 µM): 0.278; relative viability (SK-LU-1; first compound 1.265 µM): 0.235; relative viability (SK-LU-1; first compound 4 µM): 0.174
